Laboratory results taken from patent US20250019375A1, “BENZOTHIAZOLE DYES” (Detect, Inc., priority 2023, published 2025).

How the values were obtained:
[1] = test system: double stranded DNA (dsDNA); experiment: Absorption/emission spectra of dyes with dsDNA; assay type: physicochemical; conditions: for Stokes shift: 2 μM dye + 2 μM hairpin DNA; for Stokes shift / λem: pH 8.8 isoamplification buffer; for λabs: absorption recorded at 25±2° C.; for λem: fluorescence at 62±2° C.
Description: FIG. 6A-F show absorption/emission spectra of dyes with double stranded DNA (dsDNA).
Fluorescence readings (FIGS. 6A-F) were performed using 10 mm path length, 700 μL quartz cuvettes on Horiba Fluorolog-Q fluorometer instrument. All measurements were taken at elevated temperature (62±2° C.) in pH 8.8 isoamplification buffer containing 20 mM Tris-HCl. For each measurement, 2 μM of dye was combined with 2 μM of hairpin DNA. Absorption spectra were recorded at ambient temperature (25±2° C.) on a DeNovix DS-11 spectrophotometer instrument. Normalized spectra are shown for clarity. The benzothiazole dye compounds have large Stokes shift >40 nm, which allows a substantial portion of the output fluorescence to pass through the filter covering the photodiode detection component of the device.

[2] = Accelerated stability of lyophilized dye, assayed by HPLC; assay type: physicochemical
Description: It was also determined that Compound 3 is stable under accelerated stability conditions from lyophilized chemistry (FIG. 5). As assayed by HPLC, Compound 3 is stable under these conditions at the 3-month time point (98.7±0.33% remaining), corresponding to 6 months stability at room temperature (15-30° C.).

[3] = test system: Neisseria gonorrhoeae (AQ10); experiment: qLAMP assay, Neisseria gonorrhoeae (AQ10), time to positive (Tp); assay type: biochemical
Description: Compounds were added to the LAMP reaction mixture containing target-specific primers, dNTPs, DNA polymerase, reverse transcriptase, and the target RNA sequence. This reaction mixture was incubated at 62° C. (or the specified temperature (FIG. 4)) for at least 50 minutes and the increase in fluorescence was assessed to determine the time to positivity (Tp). Data shown in FIGS. 1A-B support that these compounds are compatible with LAMP assays at concentrations up to 16 μM.
For the Neisseria gonorrhoeae (AQ10), there is detrimental impact on Tp observed with Compound 5 at ≥8 μM where a delay in Tp is observed.
Data shown is under clean and eluted vaginal swabs (contrived conditions). Good performance is observed at ≥61° C. There is detrimental impact on performance at <60° C. (delay in Tp).

[4] = clean and eluted vaginal swabs (contrived conditions)

| Structure (SMILES) | Stokes shift [1] | λabs [1] | λem [1] | % remaining ([2]; 40° C., lyophilized, 3-month time point, HPLC) | corresponding stability at room temperature ([2]; room temperature (15-30° C.), extrapolated from 3 months accelerated conditions) | temperature of good performance [3, 4] | temperature with detrimental impact on performance (delay in Tp) [3, 4] | concentration with detrimental impact on Tp (delay in Tp) ([3]; Neisseria gonorrhoeae (AQ10) LAMP, 62° C.) |
| --- | --- | --- | --- | --- | --- | --- | --- | --- |
| COc1ccc2c(c1)S/C(=C\c1cc[n+](C)c(N3CCOCC3)c1)N2C [Compound 3] | 50 nm | 448 nm | 498 nm | 98.7±0.33% | 6 months | ≥ 61 °C | < 60 °C |  |
| COc1ccc2c(c1)S/C(=C\c1cc[n+](C)c(-c3ccccc3)c1)N2C [Compound 5] |  |  |  |  |  |  |  | ≥ 8 µM |
| CN1/C(=C/c2cc[n+](C)c(N3CCOCC3)c2)Sc2ccccc21 [Compound 8] | 38 nm | 442 nm | 480 nm |  |  |  |  |  |

The next lines start with results.

| Stokes shift [1] | λabs [1] | λem [1] | Structure (SMILES) | % remaining ([2]; 40° C., lyophilized, 3-month time point, HPLC) | corresponding stability at room temperature ([2]; room temperature (15-30° C.), extrapolated from 3 months accelerated conditions) | temperature of good performance [3, 4] | temperature with detrimental impact on performance (delay in Tp) [3, 4] | concentration with detrimental impact on Tp (delay in Tp) ([3]; Neisseria gonorrhoeae (AQ10) LAMP, 62° C.) |
| --- | --- | --- | --- | --- | --- | --- | --- | --- |
| 38 nm | 443 nm | 481 nm | CN(C)c1cc(/C=C2\Sc3ccccc3N2C)cc[n+]1C [Compound 10] |  |  |  |  |  |
| 43 nm | 510 nm | 553 nm | COc1ccc2c(c1)S/C(=C\c1cc[n+](C)c3ccccc13)N2C [Compound 11] |  |  |  |  |  |
